Source: US5789431A, “Naphthoquinone antitumor compound and method” (The University of North Carolina at Chapel Hill, priority 1996, dated 1998)
Where two headings read alike, the source gives them in different places.

Key:
MALME-3M = assay: in vitro melanoma cell growth inhibition (NCI screen)
K-562 = assay: in vitro leukemia cell growth inhibition (NCI screen)
HCT-116 = assay: in vitro colon cancer cell growth inhibition (NCI screen)
NCI-H266 = assay: in vitro non-small cell lung cancer cell growth inhibition (NCI screen)
ACHN = assay: in vitro renal cancer cell growth inhibition (NCI screen)
T-47D = assay: in vitro breast cancer cell growth inhibition (NCI screen)
HCT-15 = assay: in vitro colon cancer cell growth inhibition (NCI screen)
UACC-257 = assay: in vitro melanoma cell growth inhibition (NCI screen)
RXF-393 = assay: in vitro renal cancer cell growth inhibition (NCI screen)
PC-3 = assay: in vitro prostate cancer cell growth inhibition (NCI screen)
CCRF-CEM = assay: in vitro leukemia cell growth inhibition (NCI screen)
MOLT-4 = assay: as above
IGROV1 = assay: in vitro ovarian cancer cell growth inhibition (NCI screen)
UACC-62 = assay: in vitro melanoma cell growth inhibition (NCI screen)
HOP-92 = assay: in vitro non-small cell lung cancer cell growth inhibition (NCI screen)
human tumor cell lines = format: cell-based; conditions: for GI50: Homo sapiens
U 251 = assay: in vitro CNS cancer cell growth inhibition (NCI screen)
NCI-H522 = assay: in vitro non-small cell lung cancer cell growth inhibition (NCI screen)
SW 620 = assay: in vitro colon cancer cell growth inhibition (NCI screen)
HL-60(TB) = assay: in vitro leukemia cell growth inhibition (NCI screen)
SNB-75 = assay: in vitro CNS cancer cell growth inhibition (NCI screen)
TK-10 = assay: in vitro renal cancer cell growth inhibition (NCI screen)
OVCAR-3 = assay: in vitro ovarian cancer cell growth inhibition (NCI screen)
RPMI-8226 = assay: in vitro leukemia cell growth inhibition (NCI screen)
MCF-7 = assay: in vitro breast cancer cell growth inhibition (NCI screen)
OVCAR-4 = assay: in vitro ovarian cancer cell growth inhibition (NCI screen); conditions: OVACR-4
M14 = assay: in vitro melanoma cell growth inhibition (NCI screen)
KM 12 = assay: in vitro colon cancer cell growth inhibition (NCI screen)
MDA-N = assay: in vitro breast cancer cell growth inhibition (NCI screen)
SF-268 = assay: in vitro CNS cancer cell growth inhibition (NCI screen)
LXFL 529 = assay: in vitro non-small cell lung cancer cell growth inhibition (NCI screen)
786-0 = assay: in vitro renal cancer cell growth inhibition (NCI screen)
DLD-1 = assay: in vitro colon cancer cell growth inhibition (NCI screen)
HT 29 = assay: as above
NCI-H460 = assay: in vitro non-small cell lung cancer cell growth inhibition (NCI screen)
SF-539 = assay: in vitro CNS cancer cell growth inhibition (NCI screen)
LOX1MVI = assay: in vitro melanoma cell growth inhibition (NCI screen)
SR = assay: in vitro leukemia cell growth inhibition (NCI screen)
OVCAR-8 = assay: in vitro ovarian cancer cell growth inhibition (NCI screen)
SK-OV-3 = assay: as above
M19-MEL = assay: in vitro melanoma cell growth inhibition (NCI screen)
SK-MEL-5 = assay: as above
SK-MEL-28 = assay: as above
SK-MEL-2 = assay: as above
COLO-205 = assay: in vitro colon cancer cell growth inhibition (NCI screen)
UO-31 = assay: in vitro renal cancer cell growth inhibition (NCI screen)
XF-498 = assay: in vitro CNS cancer cell growth inhibition (NCI screen)
NCI-H23 = assay: in vitro non-small cell lung cancer cell growth inhibition (NCI screen)
[1] = cancer cell panel, general / most cell lines, read-out: logGI50 values in the cancer cell line panel (converted)
[2] = non-small cell lung, CNS, melanoma, colon, leukemia, small cell lung, and renal cancer cell lines, read-out: logGI50 values (range over cell lines) (converted)

Compound | cytotoxicity log GI50 (MALME-3M) [M] | cytotoxicity log GI50 (K-562) [M] | cytotoxicity log GI50 (HCT-116) [M] | cytotoxicity log GI50 (HCT-15) [M] | cytotoxicity log GI50 (UACC-257) [M] | cytotoxicity log GI50 (RXF-393) [M] | cytotoxicity log GI50 (CCRF-CEM) [M] | cytotoxicity log GI50 (MOLT-4) [M] | cytotoxicity log GI50 (UACC-62) [M] | cytotoxicity log GI50 (U 251) [M] | cytotoxicity log GI50 (NCI-H522) [M] | cytotoxicity log GI50 (HL-60(TB)) [M] | cytotoxicity log GI50 (OVCAR-3) [M] | cytotoxicity log GI50 (SF-268) [M] | cytotoxicity log GI50 (LXFL 529) [M] | cytotoxicity log GI50 (786-0) [M] | cytotoxicity log GI50 (HT 29) [M] | cytotoxicity log GI50 (NCI-H460) [M] | cytotoxicity log GI50 (SF-539) [M] | cytotoxicity log GI50 (LOX1MVI) [M] | other results
O=C(NC1=C(Cl)C(=O)c2ccccc2C1=O)c1ccc(F)cc1 [Compound 2f] | -5.82 | -6.04 | -6.34 | -6.27 | -5.71 | -5.90 | -6.10 | -5.65 | -6.55 | -5.73 | -6.34 | -6.47 |  |  |  |  |  |  |  |  | cytotoxicity log GI50 (NCI-H266): -5.96 M; cytotoxicity log GI50 (ACHN): -6.03 M; cytotoxicity log GI50 (T-47D): -5.72 M; cytotoxicity log GI50 (PC-3): -5.95 M; cytotoxicity log GI50 (IGROV1): -5.77 M; cytotoxicity log GI50 (HOP-92): -5.79 M; GI50 (human tumor cell lines; [1]): ~1 µM; cytotoxicity log GI50 (SW 620): -6.11 M
CCC(c1ccccc1F)c1nc2c(n1CC)C(=O)c1ccccc1C2=O (centres unmarked) [Compound 64] |  |  |  |  |  | -5.53 |  | -4.62 |  | -5.07 |  |  |  |  |  |  |  |  |  |  | cytotoxicity log GI50 (SNB-75): -4.60 M; cytotoxicity log GI50 (TK-10): -5.49 M
O=C(O)CCCc1nc2c(n1-c1ccccc1)C(=O)c1ccccc1C2=O [Compound 58] | -4.67 |  | -4.31 |  | -4.48 |  | -4.39 |  | -4.48 |  | -4.85 | -4.43 | -4.47 | -4.42 |  |  |  |  |  |  | cytotoxicity log GI50 (RPMI-8226): -4.39 M; cytotoxicity log GI50 (SNB-75): -4.36 M; cytotoxicity log GI50 (MCF-7): -4.49 M; cytotoxicity log GI50 (OVCAR-4): -4.62 M; cytotoxicity log GI50 (M14): -4.72 M; cytotoxicity log GI50 (KM 12): -4.50 M; cytotoxicity log GI50 (MDA-N): -4.36 M
Cc1ccc(Cn2c(C)nc3c2C(=O)c2ccccc2C3=O)cc1 [Compound 17] |  | -6.08 | -6.12 | -6.21 |  |  | -5.70 | -6.19 | -5.95 | -5.73 | -5.50 | -5.72 |  | -5.46 | -5.76 | -5.66 | -5.90 | -6.41 | -5.88 | -6.22 | cytotoxicity log GI50 (DLD-1): -5.91 M; GI50 (human tumor cell lines; [2]): 1 to 10 µM; cytotoxicity against tumor cells (in words) (human tumor cell lines; cancer cell line panel): highly active against many of the cancer cell types tested; cytotoxicity log GI50 (SR): -6.48 M; cytotoxicity log GI50 (SW 620): -5.48 M; cytotoxicity log GI50 (OVCAR-8): -5.52 M
COc1ccc(Cn2c(C)nc3c2C(=O)c2ccccc2C3=O)cc1 [Compound 18] |  | -5.49 | -5.43 | -5.76 |  |  | -5.39 | -5.59 | -5.34 | -5.20 | -5.22 | -5.38 |  | -5.35 | -5.37 | -5.27 | -5.31 | -5.62 | -5.42 | -5.60 | cytotoxicity log GI50 (DLD-1): -5.33 M; cytotoxicity log GI50 (KM 12): -5.27 M; GI50 (human tumor cell lines; [2]): 1 to 10 µM; cytotoxicity log GI50 (SR): -5.84 M
CCn1c(-c2ccc(F)cc2)nc2c1C(=O)c1ccccc1C2=O [Compound 26] | -4.35 |  |  |  |  | -4.27 |  |  |  |  |  |  | -4.47 |  |  |  |  |  |  |  | cytotoxicity log GI50 (M14): -4.15 M; GI50 (human tumor cell lines; [1]): ~10 µM; cytotoxicity log GI50 (SK-OV-3): -4.68 M
CC(=O)NC1=C(NCc2ccc(Cl)cc2)C(=O)c2ccccc2C1=O [Compound 42] |  | -5.61 | -5.51 | -5.25 | -5.21 | -5.37 |  | -5.62 | -5.58 |  | -6.01 | -5.86 |  |  |  |  |  |  | -5.36 |  | cytotoxicity log GI50 (M19-MEL): -5.28 M; cytotoxicity log GI50 (ACHN): -5.74 M; cytotoxicity log GI50 (SK-MEL-5): -5.26 M; cytotoxicity log GI50 (SK-MEL-28): -5.26 M; cytotoxicity log GI50 (SK-MEL-2): -5.25 M; cytotoxicity log GI50 (COLO-205): -5.27 M; cytotoxicity log GI50 (UO-31): -5.29 M; cytotoxicity log GI50 (XF-498): -5.84 M
Cc1nc2c(n1Cc1ccc(F)cc1)C(=O)c1ccccc1C2=O [Compound 19] | -5.05 | -5.25 | -5.16 | -5.37 |  | -4.83 | -4.98 | -5.27 | -5.28 | -5.18 | -4.97 | -5.26 | -4.82 | -5.34 | -4.87 | -4.88 | -5.03 | -5.39 | -5.16 | -5.14 | cytotoxicity log GI50 (M19-MEL): -5.44 M; cytotoxicity log GI50 (SK-MEL-5): -4.99 M; GI50 (human tumor cell lines; [2]): 1 to 10 µM; cytotoxicity log GI50 (SR): -5.37 M; cytotoxicity log GI50 (NCI-H23): -4.88 M
